In patent US20260250318A1, “COMPOSITIONS AND METHODS FOR CROSSING THE BLOOD BRAIN BARRIER” (VOYAGER THERAPEUTICS, INC., priority 2022, published 2026):

Key:
Settings in all cases: synthetic library passage 3, intravenous, relative to wild-type AAV9
[1] = system: brain, spinal cord, and DRG of the NHPs; test: NGS fold enrichment of synthetic library (passage 3) in NHPs, first cross-species screen; format: in vivo, cynomolgus macaques (Macaca fascicularis)
How it was run: (§1)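 Synthetic capsid library (passage 3) was given intravenously […] to NHPs aged 2-4 years and to BALB/c and C57Bl/6 mice (n=3 each, 6-8 weeks). After about 28 days in vivo, tissue RNA was RT-PCR amplified and NGS-sequenced; values are fold enrichment per variant relative to wild-type AAV9.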

[2] = system: brain; test: NGS fold enrichment of synthetic library (passage 3) in BALB/c mice, first cross-species screen; format: in vivo
How it was run: as §1

[3] = system: brain; test: NGS fold enrichment of synthetic library (passage 3) in C57Bl/6 mice, first cross-species screen; format: in vivo
How it was run: as §1

[4] = RNA from spinal cord of NHPs, NGS
[5] = RNA from brain of BALB/c mice, NGS
[6] = RNA from brain of C57Bl/6 mice, NGS

| Sequence | Fold enrichment over AAV9 in the brain of NHPs ([1]; RNA from brain of NHPs, NGS) [fold] | Fold enrichment over AAV9 in the spinal cord of NHPs [1, 4] [fold] | Fold enrichment over AAV9 in the brain of Mice (BALB/c) [2, 5] [fold] | Fold enrichment over AAV9 in the brain of Mice (C57Bl/6) [3, 6] [fold] | Fold enrichment over AAV9 in the brain of NHPs ([1]; RNA NGS, brain of NHPs) [fold] | Fold enrichment over AAV9 in the spinal cord of NHPs ([1]; RNA NGS, spinal cord of NHPs) [fold] | Fold enrichment over AAV9 in the brain of Mice (BALB/c) ([2]; RNA NGS, brain of BALB/c mice) [fold] | Fold enrichment over AAV9 in the brain of Mice (C57Bl/6) ([3]; RNA NGS, brain of C57Bl/6 mice) [fold] |
| --- | --- | --- | --- | --- | --- | --- | --- | --- |
| GSGQNVSMQVNQQT | 1.341 | 0.000 | 0.251 | 0.357 |  |  |  |  |
| GSGQNVSSVHRQQT |  |  |  |  | 1.045 | 0.712 | 0.271 | 0.383 |
| GSGQNWPALKGQQT | 1.284 | 2.031 | 1.222 | 1.101 |  |  |  |  |
| GSGQPRSTGINQQT |  |  |  |  | 1.061 | 0.693 | 0.542 | 0.650 |
| GSGQPVLSISNQQT |  |  |  |  | 1.586 | 2.695 | 0.282 | 0.390 |
| GSGQPYSTGLNQQT |  |  |  |  | 1.519 | 1.403 | 0.376 | 0.612 |
| GSGQQLSITPNQQT |  |  |  |  | 1.979 | 10.280 | 0.201 | 0.845 |
| GSGQREPKASNQQT | 1.214 | 2.793 | 0.520 | 0.399 |  |  |  |  |
| GSGQRGSLTENQQT | 1.337 | 2.482 | 0.567 | 0.300 |  |  |  |  |
| GSGQRLSQGVNHQT |  |  |  |  | 1.108 | 3.394 | 1.141 | 0.931 |
| GSGQRMADIGNQQT | 1.233 | 2.539 | 0.427 | 0.352 |  |  |  |  |
| GSGQRNPLLLNQQT |  |  |  |  | 1.693 | 0.144 | 0.740 | 0.662 |
| GSGQRRELSQNQQT | 1.215 | 1.791 | 0.396 | 0.622 |  |  |  |  |
| GSGQRSPVLPNQQT |  |  |  |  | 2.369 | 6.230 | 0.526 | 0.434 |
| GSGQSFQMHTNQQT |  |  |  |  | 1.504 | 9.770 | 0.325 | 0.503 |
| GSGQSHLHTGNQQT |  |  |  |  | 1.096 | 2.584 | 0.295 | 0.721 |
| GSGQSHMATLNQQT |  |  |  |  | 2.657 | 0.724 | 0.504 | 1.173 |
| GSGQSHRDVLNQQT |  |  |  |  | 1.872 | 15.082 | 0.280 | 0.138 |
| GSGQSHRQPENQQT |  |  |  |  | 1.529 | 2.153 | 0.159 | 0.209 |
| GSGQSHRSELNQQT |  |  |  |  | 1.585 | 11.974 | 0.256 | 0.668 |

| Sequence | Fold enrichment over AAV9 in the brain of NHPs ([1]; RNA from brain of NHPs, NGS) [fold] | Fold enrichment over AAV9 in the spinal cord of NHPs [1, 4] [fold] | Fold enrichment over AAV9 in the brain of Mice (BALB/c) [2, 5] [fold] | Fold enrichment over AAV9 in the brain of Mice (C57Bl/6) [3, 6] [fold] | Fold enrichment over AAV9 in the brain of NHPs ([1]; RNA NGS, brain of NHPs) [fold] | Fold enrichment over AAV9 in the spinal cord of NHPs ([1]; RNA NGS, spinal cord of NHPs) [fold] | Fold enrichment over AAV9 in the brain of Mice (BALB/c) ([2]; RNA NGS, brain of BALB/c mice) [fold] | Fold enrichment over AAV9 in the brain of Mice (C57Bl/6) ([3]; RNA NGS, brain of C57Bl/6 mice) [fold] |
| --- | --- | --- | --- | --- | --- | --- | --- | --- |
| GSGQSHSLATNQQT |  |  |  |  | 1.745 | 2.711 | 0.343 | 1.021 |
| GSGQSHSLETNQQT | 1.188 | 1.319 | 0.363 | 0.520 |  |  |  |  |
| GSGQSMTLHLNQQT |  |  |  |  | 1.827 | 0.991 | 0.248 | 0.721 |
| GSGQSREISLNQQT |  |  |  |  | 1.088 | 6.954 | 0.282 | 0.594 |
| GSGQSSGRLINKQT |  |  |  |  | 2.055 | 28.135 | 0.277 | 0.543 |
| GSGQSSYGSGNQQT | 1.257 | 1.686 | 0.456 | 1.161 |  |  |  |  |
| GSGQSTLKRINQQT | 1.168 | 13.442 | 1.184 | 0.534 |  |  |  |  |
| GSGQSVQTVVNQQT |  |  |  |  | 3.057 | 5.441 | 0.240 | 0.582 |
| GSGQSYDMRGNQQT | 1.248 | 0.567 | 0.368 | 0.588 |  |  |  |  |
| GSGQSYQRDHNQQT |  |  |  |  | 1.859 | 8.013 | 0.323 | 0.779 |
| GSGQSYTMTQNQQT |  |  |  |  | 2.136 | 6.755 | 0.231 | 0.297 |
| GSGQTARNGINQQT | 1.192 | 2.030 | 0.472 | 1.002 |  |  |  |  |
| GSGQTHGGQHNQQT |  |  |  |  | 2.125 | 12.251 | 1.098 | 1.448 |
| GSGQTQVLKSNQQT |  |  |  |  | 1.640 | 3.031 | 0.975 | 1.599 |
| GSGQTRMPLANQQT | 1.296 | 0.790 | 0.273 | 0.447 |  |  |  |  |
| GSGQTRQMKDNQQT |  |  |  |  | 1.530 | 11.079 | 0.214 | 0.841 |
| GSGQTSGLKQNQQT |  |  |  |  | 1.968 | 3.927 | 0.334 | 0.394 |
| GSGQTVVRIANQQT |  |  |  |  | 1.046 | 4.156 | 0.390 | 0.661 |
| GSGQVAYAQGNQQT | 1.259 | 1.309 | 0.313 | 0.734 |  |  |  |  |
| GSGQVGRLLQNQQT |  |  |  |  | 1.899 | 1.762 | 0.748 | 0.773 |
